molecular target: T1, Recombinant human HSD17B13 enzyme (Homo sapiens, UniProt Q7Z5P4); test: HSD17b13 NAD(P)H-Glo biochemical assay; conditions: 50 uM estradiol, 1 mM NAD+, NAD(P)H-Glo luminescence; read-out: HSD17β13 IC50
T1 sequence (Q7Z5P4 20-300): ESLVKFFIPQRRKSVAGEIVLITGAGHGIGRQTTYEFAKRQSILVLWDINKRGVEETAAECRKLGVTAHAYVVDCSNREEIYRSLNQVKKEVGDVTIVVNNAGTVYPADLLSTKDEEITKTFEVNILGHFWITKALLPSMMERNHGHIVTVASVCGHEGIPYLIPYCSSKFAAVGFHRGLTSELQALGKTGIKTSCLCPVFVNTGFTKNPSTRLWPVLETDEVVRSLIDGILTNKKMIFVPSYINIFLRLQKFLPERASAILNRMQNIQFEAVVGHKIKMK
Summary of the method: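 Recombinant human HSD17B13 in 20 mM Tris pH7.4 with 0.002% Tween-20 and 0.02% BSA was preincubated with inhibitor for 20 minutes at RT. The reaction ran 3 hours at 37° C with 50 uM estradiol and 1 mM NAD+ (final). NADH formed was detected by NAD(P)H-Glo luminescence after 1 hour at RT.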

Row | IC50 [nM] | SMILES
1 | 1000 to 30000 | O=C(O)c1cccc(-c2ccc(-n3ncc4cc(F)c(O)cc43)cc2)c1 [Compound 13.29, 4′-(5-Fluoro-6-hydroxy-1H-indazol-1-yl)-[1,1′-biphenyl]-3-carboxylic acid]
2 | 100 to 1000 | Oc1cc2c(nnn2-c2ccc(N3CC4(CCOCC4)C3)cc2)c(F)c1F [Compound 40.3, 1-(4-(7-oxa-2-azaspiro[3.5]nonan-2-yl)phenyl)-4,5-difluoro-1H-benzo[d][1,2,3]triazol-6-ol]
3 | 1000 to 30000 | CS(=O)(=O)NC1CN(c2ccc(-n3ncc4cc(F)c(O)cc43)cc2)C1 [Compound 21.1, N-(1-(4-(5-Fluoro-6-hydroxy-1H-indazol-1-yl)phenyl)azetidin-3-yl)methanesulfonamide]
4 | < 100 | CC1(C)CCN(c2ccc(-n3nnc4c(Cl)c(F)c(O)cc43)cc2)CC1 [Compound 40.1, 4-Chloro-1-(4-(4,4-dimethylpiperidin-1-yl)phenyl)-5-fluoro-1H-benzo[d][1,2,3]triazol-6-ol]
5 | 100 to 1000 | CC1(C)CCN(c2ccc(-n3nnc4cc(F)c(O)c(F)c43)nn2)CC1 [Compound 26.23, 1-(6-(4,4-Dimethylpiperidin-1-yl)pyridazin-3-yl)-5,7-difluoro-1H-benzo[d][1,2,3]triazol-6-ol]
6 | 100 to 1000 | Oc1c(F)cc2nnn(-c3ncc(N4CC5(CCOCC5)C4)cn3)c2c1F [Compound 26.21, 1-(5-(7-Oxa-2-azaspiro[3.5]nonan-2-yl)pyrimidin-2-yl)-5,7-difluoro-1H-benzo[d][1,2,3]triazol-6-ol]
7 | < 100 | Oc1cc(-c2ccc(-n3ncc4cc(F)c(O)c(F)c43)cc2)ccc1Cl [Compound 13.19, 1-(4′-Chloro-3′-hydroxy-[1,1′-biphenyl]-4-yl)-5,7-difluoro-1H-indazol-6-ol]
8 | 100 to 1000 | Oc1c(F)cc2nnn(-c3ccc(N4CCO[C@@H](c5ccccc5)C4)cc3)c2c1F [Compound 26.26, (S)-5,7-Difluoro-1-(4-(2-phenylmorpholino)phenyl)-1H-benzo[d][1,2,3]triazol-6-ol]
9 | 100 to 1000 | Cc1ccc(-c2ccc(-n3ncc4cc(F)c(O)cc43)cc2)cc1 [Compound 13.11, 5-Fluoro-1-(4′-methyl-[1,1′-biphenyl]-4-yl)-1H-indazol-6-ol]
10 | 1000 to 30000 | Oc1cccc(-c2ccc(-n3ncc4c(F)cc(O)cc43)cc2)c1 [Compound 2.8, 4-Fluoro-1-(3′-hydroxy-[1,1′-biphenyl]-4-yl)-1H-indazol-6-ol]
11 | 100 to 1000 | CS(=O)(=O)N1CCN(c2ccc(-n3ncc4c(C(F)(F)F)c(F)c(O)cc43)cc2)CC1 [Compound 4.1, 5-Fluoro-1-(4-(4-(methylsulfonyl)piperazin-1-yl)phenyl)-4-(trifluoromethyl)-1H-indazol-6-ol]
12 | 100 to 1000 | CC1(C)CN(S(C)(=O)=O)CCN1c1ccc(-n2ncc3cc(F)c(O)c(F)c32)cc1 [Compound 23.6, 1-(4-(2,2-Dimethyl-4-(methylsulfonyl)piperazin-1-yl)phenyl)-5,7-difluoro-1H-indazol-6-ol]
13 | 100 to 1000 | CS(=O)(=O)N1CC(c2ccc(-n3ncc4cc(F)c(O)c(F)c43)cc2)C1 [Compound 30, 5,7-Difluoro-1-(4-(1-(methylsulfonyl)azetidin-3-yl)phenyl)-1H-indazol-6-ol]
14 | 100 to 1000 | CC(C)N1CCN(c2ccc(-n3ncc4cc(F)c(O)c(F)c43)cc2)CC1 [Compound 24.2, 5,7-Difluoro-1-(4-(4-isopropylpiperazin-1-yl)phenyl)-1H-indazol-6-ol]
15 | 100 to 1000 | CS(=O)(=O)N1CCN(c2ccc(-n3ncc4c(Cl)c(F)c(O)cc43)cc2)CC1 [Compound 5.1, 4-Chloro-5-fluoro-1-(4-(4-(methylsulfonyl)piperazin-1-yl)phenyl)-1H-indazol-6-ol]
16 | < 100 | CC1(C)CCN(c2ccc(-n3c(=O)n(CO)c4cc(F)c(O)c(F)c43)cc2)CC1 [Compound 21.12, 3-(4-(4,4-Dimethylpiperidin-1-yl)phenyl)-4,6-difluoro-5-hydroxy-1-(hydroxymethyl)-1H-benzo[d]imidazol-2(3H)-one]
17 | 100 to 1000 | Oc1cccc(-c2ccc(-n3ncc4c(Cl)c(F)c(O)cc43)cc2)c1 [Compound 5, 4-Chloro-5-fluoro-1-(3′-hydroxy-[1,1′-biphenyl]-4-yl)-1H-indazol-6-ol]
18 | 100 to 1000 | Oc1c(F)cc2cnn(-c3ccc(N4CC5CC(C4)O5)cc3)c2c1F [Compound 23.16, 1-(4-(6-Oxa-3-azabicyclo[3.1.1]heptan-3-yl)phenyl)-5,7-difluoro-1H-indazol-6-ol]
19 | 100 to 1000 | CC1(CO)CCN(c2ccc(-n3ncc4cc(F)c(O)c(F)c43)cc2)CC1 [Compound 20.17, 5,7-Difluoro-1-(4-(4-(hydroxymethyl)-4-methylpiperidin-1-yl)phenyl)-1H-indazol-6-ol]

Row | IC50 [nM] | SMILES
20 | 100 to 1000 | Oc1c(F)cc2cnn(-c3ccc(N4CCC5(CCO5)CC4)cc3)c2c1F [Compound 26.1, 1-(4-(1-Oxa-7-azaspiro[3.5]nonan-7-yl)phenyl)-5,7-difluoro-1H-indazol-6-ol]
21 | < 100 | Oc1c(F)cc2cnn(-c3ccc(C4CCCCC4)cc3)c2c1F [Compound 27.5, 1-(4-Cyclohexylphenyl)-5,7-difluoro-1H-indazol-6-ol]
22 | 100 to 1000 | NS(=O)(=O)c1cccc(-c2ccc(-n3ncc4cc(F)c(O)cc43)cc2)c1 [Compound 13.37, 4′-(5-Fluoro-6-hydroxy-1H-indazol-1-yl)-[1,1′-biphenyl]-3-sulfonamide]
23 | 100 to 1000 | Oc1cccc(-c2ccc(-n3ncc4c(F)cc(O)c(F)c43)cc2)c1 [Compound 16, 4,7-Difluoro-1-(3′-hydroxy-[1,1′-biphenyl]-4-yl)-1H-indazol-6-ol]
24 | < 100 | Oc1cccc(-c2ccc(-n3ncc4cc(F)c(O)c(F)c43)cc2)c1 [Compound 13.12, 5,7-Difluoro-1-(3′-hydroxy-[1,1′-biphenyl]-4-yl)-1H-indazol-6-ol]
25 | 100 to 1000 | CS(=O)(=O)Nc1ccc(-c2ccc(-n3ncc4cc(F)c(O)cc43)cc2)cc1 [Compound 13.34, N-(4′-(5-Fluoro-6-hydroxy-1H-indazol-1-yl)-[1,1′-biphenyl]-4-yl)methanesulfonamide]
26 | 100 to 1000 | CC1(C)CCN(c2ccc(-n3ncc4cc(F)c(O)c(C#N)c43)cc2)CC1 [Compound 26.10, 1-(4-(4,4-Dimethylpiperidin-1-yl)phenyl)-5-fluoro-6-hydroxy-1H-indazole-7-carbonitrile]
27 | 100 to 1000 | Oc1cccc(-c2ccc(-n3ncc4cc(F)c(O)cc43)cc2)c1 [Compound 2, 5-Fluoro-1-(3′-hydroxy-[1,1′-biphenyl]-4-yl)-1H-indazol-6-ol]
28 | 100 to 1000 | CC1(O)CCN(c2ccc(-n3ncc4cc(F)c(O)c(F)c43)cc2)CC1 [Compound 23.22, 5,7-Difluoro-1-(4-(4-hydroxy-4-methylpiperidin-1-yl)phenyl)-1H-indazol-6-ol]
29 | < 100 | Oc1c(F)cc2cnn(-c3ccc(C4=CCOCC4)cc3)c2c1F [Compound 27.3, 1-(4-(3,6-Dihydro-2H-pyran-4-yl)phenyl)-5,7-difluoro-1H-indazol-6-ol]
30 | 100 to 1000 | CS(=O)(=O)N1CCN(c2ccc(-n3nc(F)c4cc(F)c(O)c(F)c43)cc2)CC1 [Compound 6, 3,5,7-Trifluoro-1-(4-(4-(methylsulfonyl)piperazin-1-yl)phenyl)-1H-indazol-6-ol]
31 | 100 to 1000 | CC(C)S(=O)(=O)N1CCN(c2ccc(-n3ncc4cc(F)c(O)c(F)c43)cc2)CC1 [Compound 23.9, 5,7-Difluoro-1-(4-(4-(isopropylsulfonyl)piperazin-1-yl)phenyl)-1H-indazol-6-ol]
32 | 100 to 1000 | Oc1cccc(-c2ccc(-n3nc(F)c4cc(F)c(O)cc43)cc2)c1 [Compound 5.3, 3,5-Difluoro-1-(3′-hydroxy-[1,1′-biphenyl]-4-yl)-1H-indazol-6-ol]
33 | 100 to 1000 | CS(=O)(=O)N1CCC2(CC1)CN(c1ccc(-n3ncc4cc(F)c(O)c(F)c43)cc1)C2 [Compound 20.22, 5,7-Difluoro-1-(4-(7-(methylsulfonyl)-2,7-diazaspiro[3.5]nonan-2-yl)phenyl)-1H-indazol-6-ol]
34 | < 100 | CC(C)C1(C)CCN(c2ccc(-n3ncc4cc(F)c(O)c(F)c43)cc2)CC1 [Compound 24.6, 5,7-Difluoro-1-(4-(4-isopropyl-4-methylpiperidin-1-yl)phenyl)-1H-indazol-6-ol]
35 | < 100 | Oc1c(F)cc2cnn(-c3ncc(-c4ccc(Cl)cc4)cn3)c2c1F [Compound 18.4, 1-(5-(4-Chlorophenyl)pyrimidin-2-yl)-5,7-difluoro-1H-indazol-6-ol]
36 | < 100 | CC1(C)CCC(c2ccc(-n3ncc4cc(F)c(O)c(F)c43)cc2)CC1 [Compound 27, 1-(4-(4,4-Dimethylcyclohexyl)phenyl)-5,7-difluoro-1H-indazol-6-ol]
37 | 100 to 1000 | NC(=O)c1cccc(-c2ccc(-n3ncc4cc(F)c(O)cc43)cc2)c1 [Compound 13.35, 4′-(5-Fluoro-6-hydroxy-1H-indazol-1-yl)-[1,1′-biphenyl]-3-carboxamide]
38 | < 100 | CS(=O)(=O)N1CCN(c2ccc(-n3ncc4cc(F)c(O)c(F)c43)c(F)c2)CC1 [Compound 20.8, 5,7-Difluoro-1-(2-fluoro-4-(4-(methylsulfonyl)piperazin-1-yl)phenyl)-1H-indazol-6-ol]

same assay, conditions: 3 h; at 10 uM compound; read-out: HSD17β13 % at 10 uM

Row | inhibition at 10 µM [%] | SMILES
39 | 35 | CC1(C)CCN(c2ccc(-n3cnc4cc(F)c(O)cc43)cc2)CC1 [Compound 21.10, 1-(4-(4,4-Dimethylpiperidin-1-yl)phenyl)-5-fluoro-1H-benzo[d]imidazol-6-ol]
